Source: ChEMBL document CHEMBL4665820, “Discovery of VU6027459: A First-in-Class Selective and CNS Penetrant mGlu Positive Allosteric Modulator Tool Compound” (ACS Med Chem Lett, 2020)

Key:
[1] = target: Acetylcholine receptor subunit alpha (Homo sapiens) (UniProt P02708); test: Displacement of [125I] alpha-Bungarotoxin from human nicotinic acetylcholine alpha 1 receptor at 10 uM incubated for 120 mins by radioligand binding assay relative to control
[2] = organism: Mus musculus; test: Displacement of [3H]-PDBu from mouse phorbol ester receptor at 10 uM incubated for 60 mins by scintillation counting analysis relative to control
[3] = target: Delta-type opioid receptor (Homo sapiens) (UniProt P41143); test: Displacement of [3H]DADLE from human recombinant Delta opioid receptor at 10 uM after 60 mins by scintillation counting analysis relative to control
Chain of Delta-type opioid receptor (Homo sapiens) (P41143 whole entry): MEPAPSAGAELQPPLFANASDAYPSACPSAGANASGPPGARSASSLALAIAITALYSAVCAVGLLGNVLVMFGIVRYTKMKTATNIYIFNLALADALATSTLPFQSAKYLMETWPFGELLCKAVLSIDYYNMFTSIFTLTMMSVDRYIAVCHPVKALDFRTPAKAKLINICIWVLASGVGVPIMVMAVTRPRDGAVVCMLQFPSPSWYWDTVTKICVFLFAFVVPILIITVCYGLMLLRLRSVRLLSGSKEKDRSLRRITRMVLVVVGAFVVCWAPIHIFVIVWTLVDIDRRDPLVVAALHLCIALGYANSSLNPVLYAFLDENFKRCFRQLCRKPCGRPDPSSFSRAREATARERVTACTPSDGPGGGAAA

[4] = target: Sodium-dependent serotonin transporter (Homo sapiens) (UniProt P31645); test: Displacement of [3H]-imipramine from recombinant human 5-HT transporter at 10 uM after 60 mins by scintillation counting relative to control
Chain of Sodium-dependent serotonin transporter (Homo sapiens) (P31645 whole entry, looked up): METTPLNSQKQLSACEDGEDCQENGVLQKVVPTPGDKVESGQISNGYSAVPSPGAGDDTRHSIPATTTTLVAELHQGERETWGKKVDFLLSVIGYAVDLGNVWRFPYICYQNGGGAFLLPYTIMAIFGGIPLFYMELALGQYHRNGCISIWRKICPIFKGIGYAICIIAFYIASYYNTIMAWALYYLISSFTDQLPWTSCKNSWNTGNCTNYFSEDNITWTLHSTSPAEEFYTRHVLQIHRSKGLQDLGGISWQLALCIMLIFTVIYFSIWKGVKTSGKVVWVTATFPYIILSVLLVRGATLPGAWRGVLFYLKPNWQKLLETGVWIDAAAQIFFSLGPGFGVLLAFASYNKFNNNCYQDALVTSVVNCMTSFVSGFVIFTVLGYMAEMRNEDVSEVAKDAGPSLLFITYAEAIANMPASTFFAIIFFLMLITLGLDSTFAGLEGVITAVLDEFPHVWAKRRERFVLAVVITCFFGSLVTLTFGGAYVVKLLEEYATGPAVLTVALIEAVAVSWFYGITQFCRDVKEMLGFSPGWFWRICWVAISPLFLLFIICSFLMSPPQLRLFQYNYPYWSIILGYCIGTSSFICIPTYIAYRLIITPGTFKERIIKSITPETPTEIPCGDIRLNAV

[5] = target: 5-hydroxytryptamine receptor 3A (Homo sapiens) (UniProt P46098); test: Displacement of [3H]BRL 43694 from human recombinant 5-HT3 receptor at 10 uM after 120 mins by scintillation counting analysis relative to control
[6] = target: Adenosine receptor A2a (Homo sapiens) (UniProt P29274); test: Displacement of [3H]-CGS 21680 from human recombinant adenosine A2A receptor at 10 uM after 120 mins by scintillation counting analysis relative to control
[7] = target: Alpha-2A adrenergic receptor (Homo sapiens) (UniProt P08913); test: Displacement of [3H]-RX821002 from human recombinant adrenergic alpha 2A receptor at 10 uM incubated for 60 mins by scintillation counting analysis relative to control
[8] = organism: Rattus norvegicus; test: Displacement of [125I]-Triiodothyronine from thyroid hormone receptors in rat at 10 uM incubated for 180 mins by scintillation counting analysis relative to control
[9] = organism: Rattus norvegicus; test: Displacement of [3H]-Batrachotoxinin from rat sodium channel site 2 at 10 uM incubated for 60 mins by scintillation counting analysis relative to control
[10] = target: Histamine H1 receptor (Homo sapiens) (UniProt P35367); test: Displacement of [3H]pyrilamine from human recombinant histamine H1 receptor at 10 uM after 60 mins by scintillation counting analysis relative to control
Chain of Histamine H1 receptor (Homo sapiens) (P35367 whole entry): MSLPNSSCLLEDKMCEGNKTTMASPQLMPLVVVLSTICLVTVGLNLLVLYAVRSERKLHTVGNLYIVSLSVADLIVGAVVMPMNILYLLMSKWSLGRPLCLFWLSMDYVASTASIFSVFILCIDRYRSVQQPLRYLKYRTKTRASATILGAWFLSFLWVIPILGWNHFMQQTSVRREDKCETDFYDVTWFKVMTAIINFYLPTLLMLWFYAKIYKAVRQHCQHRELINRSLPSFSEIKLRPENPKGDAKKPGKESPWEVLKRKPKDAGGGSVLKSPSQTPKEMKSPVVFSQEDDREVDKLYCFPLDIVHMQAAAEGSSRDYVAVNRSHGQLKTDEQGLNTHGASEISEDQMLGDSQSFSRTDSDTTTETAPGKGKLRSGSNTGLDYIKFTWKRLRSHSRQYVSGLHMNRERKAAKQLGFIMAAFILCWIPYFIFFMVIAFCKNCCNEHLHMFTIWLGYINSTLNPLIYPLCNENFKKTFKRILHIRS

[11] = target: Glutamate NMDA receptor (Rattus norvegicus) (UniProt P35439+Q00959+Q00960+Q00961+Q62645+Q8VHN2+Q9R1M7); test: Displacement of [3H]-CGP39653 from NMDA glutamate receptor in rat at 10 uM incubated for 20 mins by scintillation counting analysis relative to control
[12] = target: D(2) dopamine receptor (Homo sapiens) (UniProt P14416); test: Displacement of [3H]7-OH-DPAT from human recombinant dopamine D2S receptor at 10 uM after 60 mins by scintillation counting analysis relative to control
[13] = target: Muscarinic acetylcholine receptor M2 (Homo sapiens) (UniProt P08172); test: Displacement of [3H]AF-DX 384 from human recombinant M2 receptor at 10 uM after 60 mins by scintillation counting analysis relative to control
[14] = target: Androgen receptor (Homo sapiens) (UniProt P10275); test: Displacement of [3H]-methyltrienolone from human androgen receptor at 10 uM incubated for 1440 mins by scintillation counting analysis relative to control
Chain of Androgen receptor (Homo sapiens) (P10275 whole entry): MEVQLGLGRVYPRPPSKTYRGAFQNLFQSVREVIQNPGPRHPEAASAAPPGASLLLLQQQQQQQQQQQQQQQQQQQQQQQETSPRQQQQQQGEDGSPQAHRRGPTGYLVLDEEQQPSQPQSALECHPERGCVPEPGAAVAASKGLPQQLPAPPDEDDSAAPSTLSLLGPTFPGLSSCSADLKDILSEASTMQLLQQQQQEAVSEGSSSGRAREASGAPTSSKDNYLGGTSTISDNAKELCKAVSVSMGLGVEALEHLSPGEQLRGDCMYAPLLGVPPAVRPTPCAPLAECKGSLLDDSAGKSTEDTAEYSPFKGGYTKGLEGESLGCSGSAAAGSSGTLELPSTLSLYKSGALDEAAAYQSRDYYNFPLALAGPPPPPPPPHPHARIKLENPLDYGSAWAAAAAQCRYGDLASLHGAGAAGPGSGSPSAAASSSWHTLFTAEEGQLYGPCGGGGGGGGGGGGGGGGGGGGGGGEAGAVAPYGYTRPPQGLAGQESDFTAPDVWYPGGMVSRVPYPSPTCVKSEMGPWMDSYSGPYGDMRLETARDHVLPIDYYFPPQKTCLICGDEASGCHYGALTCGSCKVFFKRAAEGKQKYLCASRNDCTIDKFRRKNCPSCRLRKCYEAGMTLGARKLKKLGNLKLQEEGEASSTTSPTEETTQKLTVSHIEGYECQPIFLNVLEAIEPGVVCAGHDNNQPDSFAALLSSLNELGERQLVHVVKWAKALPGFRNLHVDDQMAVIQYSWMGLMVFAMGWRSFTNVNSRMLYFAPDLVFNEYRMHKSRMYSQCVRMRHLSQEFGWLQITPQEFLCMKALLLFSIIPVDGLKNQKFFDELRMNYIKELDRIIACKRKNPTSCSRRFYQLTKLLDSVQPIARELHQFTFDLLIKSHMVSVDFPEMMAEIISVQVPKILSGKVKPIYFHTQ

[15] = organism: Rattus norvegicus; test: Displacement of [125I]-Omega -conotoxin GIVA from N-type calcium channel in rat brain membrane at 10 uM incubated for 30 mins by scintillation counting analysis relative to control; format: cell membranes
[16] = target: Prostaglandin E2 receptor EP4 subtype (Homo sapiens) (UniProt P35408); test: Displacement of [3H]-Prostaglandin E2 from human recombinant prostanoid receptor EP4 at 10 uM incubated for 120 mins by scintillation counting analysis relative to control
[17] = target: Muscarinic acetylcholine receptor M1 (Homo sapiens) (UniProt P11229); test: Displacement of [125I]pirenzepine from human recombinant M1 receptor at 10 uM after 60 mins by scintillation counting analysis relative to control
[18] = organism: Rattus norvegicus; test: Displacement of [3H]-GABA in GABA transporter in rat brain membrane at 10 uM incubated for 30 mins by scintillation counting analysis elative to control; format: cell membranes
[19] = target: Melatonin receptor type 1A (Homo sapiens) (UniProt P48039); test: Displacement of [125I][…] from human recombinant MT1 receptor at 10 uM after 240 mins by scintillation counting analysis relative to control
[20] = target: P2X receptor (Rattus norvegicus) (UniProt P51579+P49653+P51578+Q64663+P47824+P51577+P49654); test: Displacement of [3H]alpha, beta-methylene ATP from P2X receptor in rat urinary bladder at 10 uM incubated for 120 mins by scintillation counting analysis relative to control
[21] = target: Interleukin-1 receptor type 1 (Homo sapiens) (UniProt P14778); test: Displacement of [125I]-Interleukin 1beta from human interleukin IL-1 R1 receptor at 10 uM incubated for 120 mins by scintillation counting analysis relative to control
[22] = target: Histamine H3 receptor (Homo sapiens) (UniProt Q9Y5N1); test: Displacement of [3H]-N-alpha-Methylhistamine from human recombinant Histamine H3 receptor at 10 uM incubated for 60 mins by scintillation counting analysis relative to control
[23] = target: Sodium-dependent noradrenaline transporter (Homo sapiens) (UniProt P23975); test: Displacement of […] from recombinant human norepinephrine transporter at 10 uM after 120 mins by scintillation counting analysis relative to control
Chain of Sodium-dependent noradrenaline transporter (Homo sapiens) (P23975 whole entry): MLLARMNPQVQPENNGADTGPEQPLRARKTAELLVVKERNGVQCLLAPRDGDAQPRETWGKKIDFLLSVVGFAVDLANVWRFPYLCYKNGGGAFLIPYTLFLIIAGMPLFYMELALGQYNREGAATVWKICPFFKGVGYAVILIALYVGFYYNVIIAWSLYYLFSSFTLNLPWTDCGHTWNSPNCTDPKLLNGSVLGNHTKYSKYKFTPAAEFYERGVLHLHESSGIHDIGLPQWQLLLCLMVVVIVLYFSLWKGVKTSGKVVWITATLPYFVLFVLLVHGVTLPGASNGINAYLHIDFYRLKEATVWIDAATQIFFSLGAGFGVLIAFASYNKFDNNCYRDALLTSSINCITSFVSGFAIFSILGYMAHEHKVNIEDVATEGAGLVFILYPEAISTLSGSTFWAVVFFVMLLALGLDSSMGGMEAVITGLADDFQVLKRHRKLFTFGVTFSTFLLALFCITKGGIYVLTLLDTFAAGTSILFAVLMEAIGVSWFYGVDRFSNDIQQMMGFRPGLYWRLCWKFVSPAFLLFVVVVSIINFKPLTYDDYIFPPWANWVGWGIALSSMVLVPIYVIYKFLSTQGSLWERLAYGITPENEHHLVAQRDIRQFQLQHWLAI

[24] = target: Substance-P receptor (Homo sapiens) (UniProt P25103); test: Displacement of [125I]-Substance P LYS3 from human recombinant tachykinin NK1 receptor at 10 uM incubated for 30 mins by scintillation counting analysis relative to control
[25] = target: 5-hydroxytryptamine receptor 1A (Homo sapiens) (UniProt P08908); test: Displacement of [3H]8-OH-DPAT from recombinant human 5-HT1A receptor at 10 uM after 60 mins by scintillation counting analysis relative to control
[26] = target: Glucocorticoid receptor (Homo sapiens) (UniProt P04150); test: Displacement of [3H]-Dexamethasone from human Glucocorticoid receptors at 10 uM incubated for 360 mins by scintillation counting analysis relative to control
Chain of Glucocorticoid receptor (Homo sapiens) (P04150 whole entry): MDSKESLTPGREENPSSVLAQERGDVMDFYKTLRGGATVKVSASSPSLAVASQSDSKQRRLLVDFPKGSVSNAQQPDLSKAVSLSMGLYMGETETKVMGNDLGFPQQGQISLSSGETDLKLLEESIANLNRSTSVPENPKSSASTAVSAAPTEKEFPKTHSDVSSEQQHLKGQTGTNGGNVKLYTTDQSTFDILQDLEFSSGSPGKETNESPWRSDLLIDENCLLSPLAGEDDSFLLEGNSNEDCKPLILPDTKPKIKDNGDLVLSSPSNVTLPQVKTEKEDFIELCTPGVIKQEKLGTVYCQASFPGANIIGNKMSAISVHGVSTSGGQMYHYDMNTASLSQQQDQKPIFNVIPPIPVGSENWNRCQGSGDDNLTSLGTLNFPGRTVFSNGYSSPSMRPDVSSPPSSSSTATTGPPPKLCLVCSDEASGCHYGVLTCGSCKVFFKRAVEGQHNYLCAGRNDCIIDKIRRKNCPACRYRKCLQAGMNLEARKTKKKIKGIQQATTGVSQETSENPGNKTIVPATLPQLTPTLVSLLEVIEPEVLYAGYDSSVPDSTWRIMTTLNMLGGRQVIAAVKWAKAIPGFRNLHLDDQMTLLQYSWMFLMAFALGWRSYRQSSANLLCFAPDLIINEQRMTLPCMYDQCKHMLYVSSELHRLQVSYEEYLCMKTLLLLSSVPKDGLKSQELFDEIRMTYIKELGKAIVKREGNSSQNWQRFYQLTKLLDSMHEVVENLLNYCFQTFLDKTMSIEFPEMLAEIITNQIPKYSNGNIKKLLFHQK

[27] = target: D(3) dopamine receptor (Homo sapiens) (UniProt P35462); test: Displacement of [3H]-methyl-spiperone from human recombinant Dopamine D3 receptor at 10 uM incubated for 60 mins by scintillation counting analysis relative to control
Chain of D(3) dopamine receptor (Homo sapiens) (P35462 whole entry): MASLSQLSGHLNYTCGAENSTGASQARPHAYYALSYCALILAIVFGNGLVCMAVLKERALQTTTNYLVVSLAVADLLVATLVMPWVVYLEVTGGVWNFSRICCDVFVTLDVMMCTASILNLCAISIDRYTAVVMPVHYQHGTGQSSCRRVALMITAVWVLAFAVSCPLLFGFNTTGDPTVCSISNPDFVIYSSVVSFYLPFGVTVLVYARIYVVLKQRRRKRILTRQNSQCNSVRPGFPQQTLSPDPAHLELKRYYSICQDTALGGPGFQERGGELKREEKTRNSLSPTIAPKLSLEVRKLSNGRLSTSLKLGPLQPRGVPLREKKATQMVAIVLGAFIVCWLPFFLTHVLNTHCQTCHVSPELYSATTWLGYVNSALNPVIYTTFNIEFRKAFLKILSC

[28] = target: Neuropeptide Y receptor type 1 (Homo sapiens) (UniProt P25929); test: Displacement of [125I]peptide YY from human Y1 receptor at 10 uM after 120 mins by scintillation counting analysis relative to control
Chain of Neuropeptide Y receptor type 1 (Homo sapiens) (P25929 whole entry): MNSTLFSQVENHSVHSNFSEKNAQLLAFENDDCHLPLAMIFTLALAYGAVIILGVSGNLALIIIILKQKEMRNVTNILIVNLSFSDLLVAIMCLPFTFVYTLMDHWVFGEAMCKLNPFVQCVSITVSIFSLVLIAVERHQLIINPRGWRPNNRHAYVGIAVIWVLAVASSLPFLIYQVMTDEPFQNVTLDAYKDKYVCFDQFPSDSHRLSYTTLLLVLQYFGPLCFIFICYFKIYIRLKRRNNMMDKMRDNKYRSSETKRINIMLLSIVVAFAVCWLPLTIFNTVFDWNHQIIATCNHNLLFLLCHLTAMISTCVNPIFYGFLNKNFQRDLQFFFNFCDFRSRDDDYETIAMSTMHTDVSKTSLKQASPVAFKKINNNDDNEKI

[29] = organism: Rattus norvegicus; test: Displacement of [3H]-Diltiazem from L-type calcium channel benzothiazepine binding site in rat brain at 10 uM incubated for 180 mins by scintillation counting analysis relative to control; format: tissue-based
[30] = tested on: Cricetinae; test: Displacement of [3H]-Glyburide from hamster potassium channel at 10 uM incubated for 120 mins by scintillation counting analysis relative to control
[31] = target: Beta-2 adrenergic receptor (Homo sapiens) (UniProt P07550); test: Displacement of [3H]-(-)CGP 12177 from human recombinant adrenergic beta 2 receptor at 10 uM incubated for 120 mins by scintillation counting analysis relative to control
Chain of Beta-2 adrenergic receptor (Homo sapiens) (P07550 whole entry, looked up): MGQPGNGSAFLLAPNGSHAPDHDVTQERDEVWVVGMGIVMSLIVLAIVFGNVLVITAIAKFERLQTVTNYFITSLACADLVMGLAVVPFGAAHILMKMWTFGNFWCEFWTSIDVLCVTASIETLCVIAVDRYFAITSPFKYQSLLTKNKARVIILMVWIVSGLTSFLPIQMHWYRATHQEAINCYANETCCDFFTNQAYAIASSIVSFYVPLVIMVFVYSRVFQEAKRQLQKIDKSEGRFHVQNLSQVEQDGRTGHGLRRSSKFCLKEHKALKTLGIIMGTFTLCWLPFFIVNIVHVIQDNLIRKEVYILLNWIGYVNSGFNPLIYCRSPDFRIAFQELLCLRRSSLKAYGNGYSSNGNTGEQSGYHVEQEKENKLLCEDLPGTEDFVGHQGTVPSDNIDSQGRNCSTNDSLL

Measured: inhibition

COc1cc(F)cc2c(N3CCN(c4ccccc4F)CC3)c(C#N)cnc12
< 50%: [1]; tested as the 2H-labelled form | [2]; tested as the 2H-labelled form | [3]; tested as the 2H-labelled form | [4]; tested as the 2H-labelled form | [5]; tested as the 2H-labelled form | [6]; tested as the 2H-labelled form | [7]; tested as the 2H-labelled form | [8]; tested as the 2H-labelled form | [9]; tested as the 2H-labelled form | [10]; tested as the 2H-labelled form | [11]; tested as the 2H-labelled form | [12]; tested as the 2H-labelled form | [13]; tested as the 2H-labelled form | [14]; tested as the 2H-labelled form | [15]; tested as the 2H-labelled form | [16]; tested as the 2H-labelled form | [17]; tested as the 2H-labelled form | [18]; tested as the 2H-labelled form | [19]; tested as the 2H-labelled form | [20]; tested as the 2H-labelled form | [21]; tested as the 2H-labelled form | [22]; tested as the 2H-labelled form | [23]; tested as the 2H-labelled form | [24]; tested as the 2H-labelled form | [25]; tested as the 2H-labelled form | [26]; tested as the 2H-labelled form | [27]; tested as the 2H-labelled form | [28]; tested as the 2H-labelled form | [29]; tested as the 2H-labelled form | [30]; tested as the 2H-labelled form | [31]; tested as the 2H-labelled form

COc1cccc2c(N3CCN(c4ccccc4F)CC3)c(C#N)cnc12
< 50%: [1] | [2] | [3] | [4] | [5] | [6] | [7] | [8] | [9] | [10] | [11] | [12] | [13] | [14] | [15] | [16] | [17] | [18] | [19] | [20] | [21] | [22] | [23] | [24] | [25] | [26] | [27] | [28] | [29] | [30] | [31]
